The values below come from patent US7981927B2, “Steroids derivatives as selective progesterone receptor modulators” (Janssen Pharmaceutica N.V., priority 2007, dated 2011).

pIC50: −log10 of the molar value.

The experiment deals with T47D human breast cancer cells. As to the kind of experiment: T47D human breast cancer cells alkaline phosphatase assay. The format is cell-based. Particulars: 24 h with test compound, alkaline phosphatase luminescence readout. The protocol:
T47D human breast cancer cells were grown in RPMI medium without phenol red (Invitrogen) containing 10% (v/v) heat-inactivated fetal bovine serum (FBS; Hyclone), 1% (v/v) penicillin-streptomycin (Invitrogen), 1% (w/v) glutamine (Invitrogen), and […] insulin (Sigma). Incubation conditions were 37° C. in a humidified 5% (v/v) carbon dioxide environment.
The cells were plated in 96-well tissue culture plates at 10,000 cells per well in assay medium [RPMI medium without phenol red (Invitrogen) containing 5% (v/v) charcoal-treated FBS (Hyclone) and 1% (v/v) penicillin-streptomycin (Invitrogen)]. Two days later, the medium was decanted and test compound or control were added at a final concentration of 0.1% (v/v) dimethyl sulfoxide in fresh assay medium. Twenty-four hours later, an alkaline phosphatase assay was performed using a SEAP kit (BD Biosciences Clontech, Palo Alto, Calif.). Briefly, the medium was decanted and the cells were fixed for 30 minutes at room temperature with 5% (v/v) formalin (Sigma). The cells were washed once with room temperature Hank's buffered saline solution (Invitrogen). […] After 1 hour incubation at room temperature in the dark, the lysate was transferred to a white 96-well plate (Dynex) and luminescence was read using a LuminoSkan Ascent (Thermo Electron, Woburn, Mass.). […]

Consider `CN(C)c1ccc([C@@H]2C[C@]3(C)C(=O)OCC[C@H]3[C@@H]3CCC4=CC(=O)CCC4=C23)cc1` (stereo in doubt) [compound 1, 11-(4-Dimethylamino-phenyl)-12a-methyl-3,4,4a,5,6,9,10,11,12,12a-decahydro-4bH-2-oxa-chrysene-1,8-dione], for which the pIC50 was 6.12.

`CC#C[C@]1(O)OCC[C@H]2[C@@H]3CCC4=CC(=O)CCC4=C3[C@@H](c3ccc(N(C)C)cc3)C[C@@]21C` (stereo in doubt) [compound 2, 11-(4-Dimethylamino-phenyl)-1-hydroxy-12a-methyl-1-prop-1-ynyl-1,3,4,4a,4b,5,6,9,10,11,12,12a-dodecahydro-2-oxa-chrysen-8-one] gave a pIC50 of 7.48.
